Here are results for two compounds from patent US4232166A, “15-Deoxy-16-hydroxy-17-methylene prostaglandins of the E and F series” (American Cyanamid Company, priority 1979, dated 1980).

Type in all cases: in vivo
Test [1] relates to bronchospasms elicited by serotonin. Kind of test: Konzett procedure: bronchodilator activity in Guinea-Pigs against bronchospasms elicited by intravenous serotonin. Particulars: Cavia porcellus, three logarithmic cumulative intravenous doses. The procedure: (§1) The bronchodilator activity for representative compounds of this invention was determined in Guinea-Pigs against bronchospasms elicited by intravenous injections of serotonin, histamine, and acetylcholine, by the Konzett procedure the details of which are those discussed by J. Lulling, P Lievens, F. El Sayed and J. Prignot, Arzeimittel-Forschung 18, 995 (1968).
(§2) In the table which follows, bronchodilator activity for representative compounds of the invention against spasmogenic agents serotonin, histamine, and acetylcholine is expressed as an ED50 determined from the results obtained with three logarithmic cumulative intravenous doses.

Test [2] relates to bronchospasms elicited by histamine. Kind of test: Konzett procedure: bronchodilator activity in Guinea-Pigs against bronchospasms elicited by intravenous histamine. Particulars: Cavia porcellus, three logarithmic cumulative intravenous doses. Here is the method: as §1, §2
Test [3] concerns bronchospasms elicited by acetylcholine. Nature of the test: Konzett procedure: bronchodilator activity in Guinea-Pigs against bronchospasms elicited by intravenous acetylcholine. As to conditions: Cavia porcellus, three logarithmic cumulative intravenous doses, read-out: ED50 ACETYL CHOLINE. Here is the method:
as §1, §2

What is called ED50 is the dose that gives a 50% effect, or the effect in half of the subjects. With `C=C(CCC)C(O)C/C=C/[C@H]1[C@H](O)CC(=O)[C@@H]1C/C=C\CCCC(=O)O` (relative stereo) [dl 9-oxo-11α,16-dihydroxy-17-methylene-5-cis, 13-trans-prostadienoic acid], the ED50 in test [1] was 5.4 µg/kg; in test [2], 10.6 µg/kg; in test [3], 24 µg/kg.

With `C=C(CCC)C(C)(O)C/C=C/[C@H]1[C@H](O)CC(=O)[C@@H]1C/C=C\CCCC(=O)O` (relative stereo) [dl 9-oxo-11α,16-dihydroxy-16-methyl-17-methylene-5-cis,13-trans-prostadienoic acid], the values for the ED50 in test [1], in test [2] and in test [3] were 2.5 µg/kg, 1.2 µg/kg and 3.6 µg/kg, respectively.
